PubChem BioAssay (NCI)
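Cultured in 96-well plates, cells were exposed to test compound for 48 hours across five concentrations. TGI: concentration producing complete growth inhibition.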

Legend:
Assay in all cases: inhibition of tumour cell growth, NCI panel, 48 h
UACC-62 melanoma = system: UACC-62 melanoma
SNB-75 CNS = system: SNB-75 CNS
SF-539 CNS = system: SF-539 CNS
HCC-2998 colon = system: HCC-2998 colon
K-562 leukemia = system: K-562 leukemia
SF-268 CNS = system: SF-268 CNS
T-47D breast = system: T-47D breast
OVCAR-3 ovarian = system: OVCAR-3 ovarian
NCI/ADR-RES ovarian = system: NCI/ADR-RES ovarian
NCI-H522 lung = system: NCI-H522 lung
A498 renal = system: A498 renal
SW-620 colon = system: SW-620 colon
LOX IMVI melanoma = system: LOX IMVI melanoma
NCI-H23 lung = system: NCI-H23 lung
MDA-N = system: MDA-N
HOP-62 NSCLC = system: HOP-62 NSCLC
A549 NSCLC = system: A549 NSCLC
HOP-92 NSCLC = system: HOP-92 NSCLC
IGROV1 ovarian = system: IGROV1 ovarian
MALME-3M melanoma = system: MALME-3M melanoma
NCI-H460 lung = system: NCI-H460 lung
UACC-257 melanoma = system: UACC-257 melanoma
SK-MEL-28 melanoma = system: SK-MEL-28 melanoma
COLO 205 colon = system: COLO 205 colon
SK-MEL-5 melanoma = system: SK-MEL-5 melanoma
OVCAR-8 ovarian = system: OVCAR-8 ovarian
OVCAR-4 ovarian = system: OVCAR-4 ovarian
MDA-MB-435 = system: MDA-MB-435
UO-31 renal = system: UO-31 renal
SNB-19 CNS = system: SNB-19 CNS
HCT-15 colon = system: HCT-15 colon
HCT-116 colon = system: HCT-116 colon
HS 578T breast = system: HS 578T breast
NCI-H226 lung = system: NCI-H226 lung
CAKI-1 renal = system: CAKI-1 renal
SF-295 CNS = system: SF-295 CNS
RPMI-8226 leukemia = system: RPMI-8226 leukemia
MDA-MB-231 breast = system: MDA-MB-231 breast
ACHN renal = system: ACHN renal
KM12 colon = system: KM12 colon
MOLT-4 leukemia = system: MOLT-4 leukemia
HT29 colon = system: HT29 colon
OVCAR-5 ovarian = system: OVCAR-5 ovarian
786-0 renal = system: 786-0 renal
EKVX NSCLC = system: EKVX NSCLC
RXF 393 renal = system: RXF 393 renal
U251 CNS = system: U251 CNS
BT-549 breast = system: BT-549 breast
CCRF-CEM leukemia = system: CCRF-CEM leukemia
M14 melanoma = system: M14 melanoma
MCF7 breast = system: MCF7 breast
TK-10 renal = system: TK-10 renal
PC-3 prostate = system: PC-3 prostate
SK-OV-3 ovarian = system: SK-OV-3 ovarian
SK-MEL-2 melanoma = system: SK-MEL-2 melanoma
HL-60(TB) leukemia = system: HL-60(TB) leukemia
DU-145 prostate = system: DU-145 prostate
SN12C renal = system: SN12C renal

For `COc1cc(C(c2c(O)c3ccccc3oc2=O)c2c(O)c3ccccc3oc2=O)ccc1O`, the TGI (UACC-62 melanoma) was 35.4 µM, the TGI (SNB-75 CNS) was 66.1 µM and the TGI (SF-539 CNS) was 53.9 µM. For the same compound, the TGI (HCC-2998 colon) was 33.9 µM, the TGI (K-562 leukemia) was over 100 µM and the TGI (SF-268 CNS) was 45.4 µM. It also gave a TGI (T-47D breast) of 33.9 µM, a TGI (OVCAR-3 ovarian) of 34.6 µM and a TGI (NCI/ADR-RES ovarian) of over 100 µM. The TGI (NCI-H522 lung) was 43.2 µM, the TGI (A498 renal) was over 100 µM and the TGI (SW-620 colon) was 63.1 µM. For the same compound, the TGI (LOX IMVI melanoma) was 65.1 µM, the TGI (NCI-H23 lung) was over 100 µM and the TGI (MDA-N) was 44.8 µM. It also gave a TGI (HOP-62 NSCLC) of over 100 µM, a TGI (A549 NSCLC) of over 100 µM and a TGI (HOP-92 NSCLC) of 33.8 µM. For the same compound, the TGI (IGROV1 ovarian) was 27.2 µM, the TGI (MALME-3M melanoma) was 38 µM and the TGI (NCI-H460 lung) was 44.6 µM. For the same compound, the TGI (UACC-257 melanoma) was 37.1 µM, the TGI (SK-MEL-28 melanoma) was 36.5 µM and the TGI (COLO 205 colon) was 31.7 µM. For the same compound, the TGI (SK-MEL-5 melanoma) was 30.3 µM, the TGI (OVCAR-8 ovarian) was over 100 µM and the TGI (OVCAR-4 ovarian) was over 100 µM. For the same compound, the TGI (MDA-MB-435) was over 100 µM, the TGI (UO-31 renal) was 65.6 µM and the TGI (SNB-19 CNS) was 92 µM. The TGI (HCT-15 colon) was 36 µM, the TGI (HCT-116 colon) was over 100 µM and the TGI (HS 578T breast) was over 100 µM. For the same compound, the TGI (NCI-H226 lung) was over 100 µM, the TGI (CAKI-1 renal) was 36.5 µM and the TGI (SF-295 CNS) was over 100 µM. For the same compound, the TGI (RPMI-8226 leukemia) was over 100 µM, the TGI (MDA-MB-231 breast) was 35.9 µM and the TGI (ACHN renal) was 40.2 µM. It also gave a TGI (KM12 colon) of 87.1 µM, a TGI (MOLT-4 leukemia) of 62.4 µM and a TGI (HT29 colon) of 40.8 µM. For the same compound, the TGI (OVCAR-5 ovarian) was 41.3 µM, the TGI (786-0 renal) was 56 µM and the TGI (EKVX NSCLC) was 80.9 µM. The TGI (RXF 393 renal) was 33.7 µM, the TGI (U251 CNS) was 58.4 µM and the TGI (BT-549 breast) was 38.9 µM. It also gave a TGI (CCRF-CEM leukemia) of 89.6 µM, a TGI (M14 melanoma) of 34.7 µM and a TGI (MCF7 breast) of 38.2 µM. It also gave a TGI (TK-10 renal) of 46.1 µM, a TGI (PC-3 prostate) of 94.6 µM and a TGI (SK-OV-3 ovarian) of over 100 µM. It also gave a TGI (SK-MEL-2 melanoma) of 58.5 µM, a TGI (HL-60(TB) leukemia) of 57.9 µM and a TGI (DU-145 prostate) of 52.6 µM. It also gave a TGI (SN12C renal) of 42 µM.
